What is called IC50 is the concentration at which inhibition is half-maximal.

The values that follow come from US7211576B2, “Diaminothiazoles” (Hoffmann-La Roche Inc., priority 2004, dated 2007).

Sequence of human cyclin B-CDK1 (P06493 whole entry): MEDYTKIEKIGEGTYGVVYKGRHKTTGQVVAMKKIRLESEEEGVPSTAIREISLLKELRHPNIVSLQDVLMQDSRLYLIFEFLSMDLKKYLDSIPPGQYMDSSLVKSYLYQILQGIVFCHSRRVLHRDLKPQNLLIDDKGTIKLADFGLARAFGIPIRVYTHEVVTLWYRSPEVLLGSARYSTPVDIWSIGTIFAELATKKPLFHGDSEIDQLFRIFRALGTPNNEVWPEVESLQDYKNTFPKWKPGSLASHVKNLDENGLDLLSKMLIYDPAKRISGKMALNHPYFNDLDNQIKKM
Sequence of human cyclin B-CDK1 (P14635 whole entry partner): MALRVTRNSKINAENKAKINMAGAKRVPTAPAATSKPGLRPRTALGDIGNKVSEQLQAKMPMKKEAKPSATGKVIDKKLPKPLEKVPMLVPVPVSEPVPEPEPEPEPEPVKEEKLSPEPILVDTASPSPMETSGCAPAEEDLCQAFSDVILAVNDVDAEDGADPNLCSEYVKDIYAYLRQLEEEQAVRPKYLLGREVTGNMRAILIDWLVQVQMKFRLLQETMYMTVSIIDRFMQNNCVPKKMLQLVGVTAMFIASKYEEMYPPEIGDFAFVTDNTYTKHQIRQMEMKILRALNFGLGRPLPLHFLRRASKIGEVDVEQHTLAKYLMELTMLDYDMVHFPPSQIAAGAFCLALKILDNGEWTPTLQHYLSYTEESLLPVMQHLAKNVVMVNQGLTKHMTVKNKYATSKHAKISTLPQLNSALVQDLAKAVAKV
Sequence of human cyclin D1-CDK4 (P11802 whole entry): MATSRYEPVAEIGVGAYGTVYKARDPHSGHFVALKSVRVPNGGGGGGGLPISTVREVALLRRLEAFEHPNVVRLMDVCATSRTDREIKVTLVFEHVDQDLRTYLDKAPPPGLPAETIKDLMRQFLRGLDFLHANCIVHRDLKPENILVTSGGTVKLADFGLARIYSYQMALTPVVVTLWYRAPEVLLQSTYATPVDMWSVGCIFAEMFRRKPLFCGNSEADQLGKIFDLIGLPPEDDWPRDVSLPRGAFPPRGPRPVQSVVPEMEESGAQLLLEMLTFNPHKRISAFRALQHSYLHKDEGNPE
Sequence of human cyclin D1-CDK4 (P24385 whole entry partner): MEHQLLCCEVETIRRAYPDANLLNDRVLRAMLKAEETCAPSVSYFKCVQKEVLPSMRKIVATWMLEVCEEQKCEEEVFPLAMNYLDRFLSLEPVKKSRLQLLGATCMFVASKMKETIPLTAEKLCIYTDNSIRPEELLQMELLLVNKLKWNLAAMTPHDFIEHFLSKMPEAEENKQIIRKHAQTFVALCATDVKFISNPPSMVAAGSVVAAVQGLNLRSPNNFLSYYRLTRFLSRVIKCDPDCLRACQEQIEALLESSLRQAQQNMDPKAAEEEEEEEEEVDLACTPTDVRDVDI

The first assay addresses human cyclin D1-CDK4 (Homo sapiens, UniProt P11802). The experiment in a line: FlashPlate kinase assay, cyclin D1-CDK4. Conditions: Rb protein substrate, 1 μM ATP, 33P-ATP, 30 minutes room temperature; read-out: CDK4 IC50. The assay is classed as biochemical. How it is done: To determine inhibition of Cdk4, Cdk2 and Cdk1 activity, kinase assays were conducted using FlashPlate™ assays (NEN™-Life Science Products). FlashPlate assays were performed using recombinant human cyclin B-CDK1, human cyclin E-CDK2 or human cyclin D1-CDK4 complexes. GST-cyclinE (GST-cycE), CDK2, GST-cyclinB (GST-cycB), CDK1, GST-CDK4 and cyclin D1 (cycD1) cDNA clones in baculovirus vectors were provided by Dr. W. Harper at the Baylor College of Medicine, Houston, Tex.
(§1) The expression of the 62Kd protein was under the control of an IPTG inducible promoter in an M15 E. coli strain. Cells were lysed by sonication and purification was carried out by binding lysates at pH 8.0 to a Ni-chelated agarose column pretreated with 1 mM imidazole. The resin was then washed several times with incrementally decreasing pH buffers to pH 6.0, and eluted with 500 mM imidazole. Eluted protein was dialysed against 20 mM HEPES pH 7.5, 30% glycerol, 200 mM NaCl, and 1 mM DTT. Purified Rb fusion protein stocks were quantitated for protein concentration, aliquoted, and stored at −70° C.
(§2) For all three kinase assays reported herein, 96-well FlashPlates were coated with Rb protein at 10 μg/ml, using 100 μl per well. Plates were incubated at 4° C. overnight or at room temperature for 3 hours on a shaker. To control for nonspecific phosphorylation, one row of wells was coated with 100 μl/well coating buffer (20 mM HEPES, 0.2 M NaCl). Plates were then washed twice with wash buffer (0.01% Tween 20 in phosphate-buffered saline). Compounds to be tested (“test compounds”) were added to the wells at 5× final concentration. Reactions were initiated by immediate addition of 40 μl reaction mix (25 mM HEPES, 20 mM MgCl2, 0.002% Tween 20, 2 mM DTT, 1 μM ATP, 4 nM ^33P-ATP) and a sufficient amount of enzyme to give counts that were at least 10-fold above background. Plates were incubated at room temperature on a shaker for 30 minutes. Plates were washed four times with the wash buffer, sealed, and counted on the TopCount scintillation counter (Packard Instrument Co., Downers Grove, Ill.]. The percent inhibition of Rb phosphorylation, which is a measure of the inhibition of CDK activity, was determined according to the following formula:
[formula] where “test compound” refers to the average counts per minute of the test duplicates, “nonspecific” refers to the average counts per minute when no CyclinD/Cdk4, etc., was added, and “total” refers to the average counts per minute when no compound was added.
On to `CN(C)C1CCN(c2ccc(Nc3nc(N)c(C(=O)c4ccc(C#N)cc4)s3)cc2)CC1` [Example 47, 4-{4-Amino-2-[4-(4-dimethylamino-piperidin-1-yl)-phenylamino]-thiazole-5-carbonyl}-benzonitrile], for which the IC50 was found to be 186 nM. `CN(C)C1CCN(c2ccc(Nc3nc(N)c(C(=O)c4ccc([N+](=O)[O-])cc4)s3)cc2)CC1` [Example 48, {4-Amino-2-[4-(4-dimethylamino-piperidin-1-yl)-phenylamino]-thiazol-5-yl}-(4-nitro-phenyl)-methanone]: the half-inhibitory concentration (IC50) worked out at 74 nM. Turning to `N#Cc1ccc(C(=O)c2sc(Nc3ccc(N4CCC(N5CCCC(O)C5)CC4)cc3)nc2N)cc1` (stereo not drawn) [Example 51, 4-{4-Amino-2-[4-(3-hydroxy-[1,4′]bipiperidinyl-1′-yl)-phenylamino]-thiazole-5-carbonyl}-benzonitrile], the half-inhibitory concentration (IC50) is 230 nM. In the case of `Nc1nc(Nc2ccc(N3CCC(N4CCCC(O)C4)CC3)cc2)sc1C(=O)c1ccc([N+](=O)[O-])cc1` (stereo not drawn) [Example 52, {4-Amino-2-[4-(3-hydroxy-[1,4′]bipiperidinyl-1′-yl)-phenylamino]-thiazol-5-yl}-(4-nitro-phenyl)-methanone], the IC50 came to 71 nM. Still for that read-out and setting: under `Nc1nc(Nc2ccc(N3CCC(N4CCCC4)CC3)cc2)sc1C(=O)c1ccc([N+](=O)[O-])cc1` [Example 53, {4-Amino-2-[4-(4-pyrrolidin-1-yl-piperidin-1-yl)-phenylamino]-thiazol-5-yl}-(4-nitro-phenyl)-methanone] stands 96 nM. As for `N#Cc1ccc(C(=O)c2sc(Nc3ccc(N4CCC(N5CCCC5)CC4)cc3)nc2N)cc1` [Example 54, 4-{4-Amino-2-[4-(4-pyrrolidin-1-yl-piperidin-1-yl)-phenylamino]-thiazole-5-carbonyl}-benzonitrile], the IC50 was determined as 212 nM. On the same count and under the same terms, in the case of `N#Cc1ccc(C(=O)c2sc(Nc3ccc(N4CCC(N5CCCCC5)CC4)cc3)nc2N)cc1` [Example 55, 4-[4-Amino-2-(4-[1,4′]bipiperidinyl-1′-yl-phenylamino)-thiazole-5-carbonyl]-benzonitrile] it was 370 nM. Consider `Nc1nc(Nc2ccc(N3CCC(N4CCCCC4)CC3)cc2)sc1C(=O)c1ccc([N+](=O)[O-])cc1` [Example 56, [4-Amino-2-(4-[1,4′]bipiperidinyl-1′-yl-phenylamino)-thiazol-5-yl]-(4-nitro-phenyl)-methanone], for which the IC50 was determined as 160 nM.

For the molecule `Nc1nc(Nc2ccc(N3CCC(N4CCCCC4)CC3)cc2)sc1C(=O)c1ccc(Cl)cc1` [Example 58, [4-Amino-2-(4-[1,4′]bipiperidinyl-1′-yl-phenylamino)-thiazol-5-yl]-(4-chloro-phenyl)-methanone], the 50% inhibitory concentration (IC50) was 45 nM. Consider `Nc1nc(Nc2ccc(N3CCC(N4CCCCC4)CC3)cc2)sc1C(=O)c1ccc(Cl)c(Cl)c1` [Example 60, [4-Amino-2-(4-[1,4′]bipiperidinyl-1′-yl-phenylamino)-thiazol-5-yl]-(3,4-dichloro-phenyl)-methanone], for which the IC50 was found to be 90 nM. Still for that read-out and setting: in the case of `Nc1nc(Nc2ccc(N3CCC(N4CCCCC4)CC3)cc2)sc1C(=O)c1ccc(F)cc1` [Example 61, [4-Amino-2-(4-[1,4′]bipiperidinyl-1′-yl-phenylamino)-thiazol-5-yl]-(4-fluoro-phenyl)-methanone] it was 71 nM.

For the molecule `Nc1nc(Nc2ccc(N3CCC(N4CCCCC4)CC3)cc2)sc1C(=O)c1ccc(C(=O)O)cc1` [Example 63], the IC50 came to 320 nM.

Turning to `Nc1nc(Nc2ccc(N3CCC(N4CCCC4)CC3)cc2)sc1C(=O)c1cc(F)cc(F)c1` [Example 66, {4-Amino-2-[4-(4-pyrrolidin-1-yl-piperidin-1-yl)-phenylamino]-thiazol-5-yl}-(3,5-difluoro-phenyl)-methanone], the half-inhibitory concentration (IC50) worked out at 76 nM. Still for that read-out and setting: under `Nc1nc(Nc2ccc(N3CCC(N4CCCC4)CC3)cc2)sc1C(=O)c1ccc(Cl)cc1` [Example 67, {4-Amino-2-[4-(4-pyrrolidin-1-yl-piperidin-1-yl)-phenylamino]-thiazol-5-yl}-(4-chloro-phenyl)-methanone] stands 170 nM; under `Nc1nc(Nc2ccc(N3CCC(N4CCCC4)CC3)cc2)sc1C(=O)c1ccc(F)cc1` [Example 70, {4-Amino-2-[4-(4-pyrrolidin-1-yl-piperidin-1-yl)-phenylamino]-thiazol-5-yl}-(4-fluoro-phenyl)-methanone], 186 nM; under `Nc1nc(Nc2ccc(N3CCC(N4CCCC(O)C4)CC3)cc2)sc1C(=O)c1ccc(Cl)cc1` (stereo not drawn) [Example 74, {4-Amino-2-[4-(3-hydroxy-[1,4′]bipiperidinyl-1′-yl)-phenylamino]-thiazol-5-yl}-(4-chloro-phenyl)-methanone], 62 nM. For the molecule `Nc1nc(Nc2ccc(N3CCC(N4CCCC(O)C4)CC3)cc2)sc1C(=O)c1ccc(F)cc1` (stereo not drawn) [Example 77, {4-Amino-2-[4-(3-hydroxy-[1,4′]bipiperidinyl-1′-yl)-phenylamino]-thiazol-5-yl}-(4-fluoro-phenyl)-methanone], the IC50 amounted to 111 nM. For the molecule `Nc1nc(Nc2ccc(N3CCC(N4CCCC(O)C4)CC3)cc2)sc1C(=O)c1ccc(C(=O)O)cc1` (stereo not drawn) [Example 79, 4-{4-Amino-2-[4-(3-hydroxy-[1,4′]bipiperidinyl-1′-yl)-phenylamino]-thiazole-5-carbonyl}-benzoic acid], the 50% inhibitory concentration (IC50) came out at 400 nM. Same read-out and setting: in the case of `CN(C)C1CCN(c2ccc(Nc3nc(N)c(C(=O)c4ccc(Cl)cc4)s3)cc2)CC1` [Example 83, {4-Amino-2-[4-(4-dimethylamino-piperidin-1-yl)-phenylamino]-thiazol-5-yl}-(4-chloro-phenyl)-methanone] it was 132 nM; in that of `CN(C)C1CCN(c2ccc(Nc3nc(N)c(C(=O)c4ccc(F)cc4)s3)cc2)CC1` [Example 86, {4-Amino-2-[4-(4-dimethylamino-piperidin-1-yl)-phenylamino]-thiazol-5-yl}-(4-fluoro-phenyl)-methanone], 114 nM; in that of `CN(C)C1CCN(c2ccc(Nc3nc(N)c(C(=O)c4ccc(O)c(C(N)=O)c4)s3)cc2)CC1` [Example 93, 5-{4-Amino-2-[4-(4-dimethylamino-piperidin-1-yl)-phenylamino]-thiazole-5-carbonyl}-2-hydroxy-benzamide], 677 nM. Still for that read-out and setting: in the case of `NC(=O)c1cc(C(=O)c2sc(Nc3ccc(N4CCC(N5CCCC5)CC4)cc3)nc2N)ccc1O` [Example 94, 5-{4-Amino-2-[4-(4-pyrrolidin-1-yl-piperidin-1-yl)-phenylamino]-thiazole-5-carbonyl}-2-hydroxy-benzamide] it was 390 nM; in that of `Nc1nc(Nc2ccc(N3CCC(N4CCOCC4)CC3)cc2)sc1C(=O)c1ccc2c(c1)OCCO2` [Example 98, {4-Amino-2-[4-(4-morpholin-4-yl-piperidin-1-yl)-phenylamino]-thiazol-5-yl}-(2,3-dihydro-benzo[1,4]dioxin-6-yl)-methanone], 39 nM.

The target in the next assay is human cyclin B-CDK1 (Homo sapiens, UniProt P06493). The experiment in a line: FlashPlate kinase assay, cyclin B-CDK1. The assay is classed as biochemical. The note with it: Rb protein substrate, 1 μM ATP, 33P-ATP, 30 minutes room temperature. How it is done:
To determine inhibition of Cdk4, Cdk2 and Cdk1 activity, kinase assays were conducted using FlashPlate™ assays (NEN™-Life Science Products). FlashPlate assays were performed using recombinant human cyclin B-CDK1, human cyclin E-CDK2 or human cyclin D1-CDK4 complexes. GST-cyclinE (GST-cycE), CDK2, GST-cyclinB (GST-cycB), CDK1, GST-CDK4 and cyclin D1 (cycD1) cDNA clones in baculovirus vectors were provided by Dr. W. Harper at the Baylor College of Medicine, Houston, Tex. Proteins were co-expressed in High Five™ insect cells and the complex was purified on glutathione Sepharose resin (Pharmacia, Piscataway, N.J.) as previously described (Harper, J. W. et al. Cell 1993, 75, 805–816). A 6×-Histidine tagged truncated form of retinoblastoma (Rb) protein (amino acid 386–928) was used as the substrate for the cycD1-CDK4, cycB-CDK1 and the cycE-CDK2 assays (the expression plasmid was provided by Dr. Veronica Sullivan, Department of Molecular Virology, Roche Research Centre, Welwyn Garden City, United Kingdom). The Rb protein is a natural substrate for phosphorylation by CDK4, CDK2 and CDK1 (see Herwig and Strauss Eur. J. Biochem. Vol. 246 (1997) pp. 581–601 and the references cited therein).
as §1, §2
[formula] where “test compound” refers to the average counts per minute of the test duplicates, “nonspecific” refers to the average counts per minute when no CyclinD/Cdk4, etc., was added, and “total” refers to the average counts per minute when no compound was added. The IC50 value is the concentration of test compound that reduces by 50% the protein-kinase induced incorporation of the radiolabel under the test conditions described.
The molecule `Nc1nc(Nc2ccc(N3CCC(N4CCCCC4)CC3)cc2)sc1C(=O)c1ccc([N+](=O)[O-])cc1` [Example 56, [4-Amino-2-(4-[1,4′]bipiperidinyl-1′-yl-phenylamino)-thiazol-5-yl]-(4-nitro-phenyl)-methanone] yielded an IC50 of 4770 nM. On the same count and under the same terms, in the case of `Nc1nc(Nc2ccc(N3CCC(N4CCCCC4)CC3)cc2)sc1C(=O)c1ccc(Cl)c(Cl)c1` [Example 60, [4-Amino-2-(4-[1,4′]bipiperidinyl-1′-yl-phenylamino)-thiazol-5-yl]-(3,4-dichloro-phenyl)-methanone] it was 5770 nM; in that of `Nc1nc(Nc2ccc(N3CCC(N4CCCC4)CC3)cc2)sc1C(=O)c1cc(F)cc(F)c1` [Example 66, {4-Amino-2-[4-(4-pyrrolidin-1-yl-piperidin-1-yl)-phenylamino]-thiazol-5-yl}-(3,5-difluoro-phenyl)-methanone], 4020 nM. The same measure, in the same setting: in the case of `Nc1nc(Nc2ccc(N3CCC(N4CCOCC4)CC3)cc2)sc1C(=O)c1ccc2c(c1)OCCO2` [Example 98, {4-Amino-2-[4-(4-morpholin-4-yl-piperidin-1-yl)-phenylamino]-thiazol-5-yl}-(2,3-dihydro-benzo[1,4]dioxin-6-yl)-methanone] it was 2700 nM.
